Values of other authors as cited in PubChem BioAssay AID1259409 (Chemical Carcinogenesis Research Information System (CCRIS), 2018).

Tested on: rodent chemically induced tumor inhibition, incidence and multiplicity
Experiment: CCRIS tumor inhibitor studies

C
tumour outcome (control, treated, inhibition, significance) (Carcinogen: N-METHYL-N'-NITRO-N-NITROSOGUANIDINE [70-25-7], Dose [Inhibitor]: 100 MG/KG BW AQUALEN (ACTIVATED CARBON FIBER ADSORBENT) IN DIET 5X/WK FOR 16 MONTHS (STUDY DURATION: 16 MONTHS), Route [Inhibitor]: ORAL, Species: RAT, Strain/Sex: LIO/FEMALE, Target Tissue: Type of Lesion: DUODENUM: ADENOCARCINOMA, Dose [Carcinogen]: 100 MG/L IN DRINKING WATER 5X/WK FOR 12 MONTHS (STUDY DURATION: 16 MONTHS), Promoter: NONE): 2/14 (14.3%), 0/13 (0.0%), 100%, not significant
tumour outcome (control, treated, inhibition, significance) (Carcinogen: N-METHYL-N'-NITRO-N-NITROSOGUANIDINE [70-25-7], Dose [Inhibitor]: 100 MG/KG BW AQUALEN (ACTIVATED CARBON FIBER ADSORBENT) IN DIET 5X/WK FOR 16 MONTHS (STUDY DURATION: 16 MONTHS), Route [Inhibitor]: ORAL, Species: RAT, Strain/Sex: LIO/FEMALE, Target Tissue: Type of Lesion: LIVER: CYSTOCHOLANGIOMA, Dose [Carcinogen]: 100 MG/L IN DRINKING WATER 5X/WK FOR 12 MONTHS (STUDY DURATION: 16 MONTHS), Promoter: NONE): 2/14 (14.3%), 0/13 (0.0%), 100%, not significant
tumour outcome (control, treated, inhibition, significance) (Carcinogen: N-METHYL-N'-NITRO-N-NITROSOGUANIDINE [70-25-7], Dose [Inhibitor]: 100 MG/KG BW AQUALEN (ACTIVATED CARBON FIBER ADSORBENT) IN DIET 5X/WK FOR 16 MONTHS (STUDY DURATION: 16 MONTHS), Route [Inhibitor]: ORAL, Species: RAT, Strain/Sex: LIO/FEMALE, Target Tissue: Type of Lesion: STOMACH: CARCINOMA IN SITU, Dose [Carcinogen]: 100 MG/L IN DRINKING WATER 5X/WK FOR 12 MONTHS (STUDY DURATION: 16 MONTHS), Promoter: NONE): 1/14 (7.1%), 4/13 (30.8%), -334%, not significant
tumour outcome (control, treated, inhibition, significance) (Carcinogen: N-METHYL-N'-NITRO-N-NITROSOGUANIDINE [70-25-7], Dose [Inhibitor]: 100 MG/KG BW AQUALEN (ACTIVATED CARBON FIBER ADSORBENT) IN DIET 5X/WK FOR 16 MONTHS (STUDY DURATION: 16 MONTHS), Route [Inhibitor]: ORAL, Species: RAT, Strain/Sex: LIO/FEMALE, Target Tissue: Type of Lesion: STOMACH: INVASIVE ADENOCARCINOMA, Dose [Carcinogen]: 100 MG/L IN DRINKING WATER 5X/WK FOR 12 MONTHS (STUDY DURATION: 16 MONTHS), Promoter: NONE): 5/14 (35.7%), 1/13 (7.7%), 78%, p<0.05

N#C[SeH]
tumour outcome (control, treated, inhibition, significance) (Carcinogen: 7,12-DIMETHYLBENZ[A]ANTHRACENE, 57-97-6, Dose [Inhibitor]: 0, 2 PPM (AS SELENIUM) IN DIET BEGINNING 2 WK PRIOR TO CARCINOGEN DOSE AND CONTINUING FOR DURATION OF STUDY (STUDY DURAT, Route [Inhibitor]: ORAL, Species: RAT, Strain/Sex: SPRAGUE-DAWLEY/FEMALE, Target Tissue: Type of Lesion: MAMMARY GLAND: ADENOCARCINOMA, Dose [Carcinogen]: 10 MG ONCE AT 55 D OF AGE, Promoter: NONE USED): 88%, 68%, 23%, not significant
tumour outcome (control, treated, inhibition, significance) (Carcinogen: 7,12-DIMETHYLBENZ[A]ANTHRACENE, 57-97-6, Dose [Inhibitor]: 0, 3 PPM (AS SELENIUM) IN DIET BEGINNING 2 WK PRIOR TO CARCINOGEN DOSE AND CONTINUING FOR DURATION OF STUDY (STUDY DURAT, Route [Inhibitor]: ORAL, Species: RAT, Strain/Sex: SPRAGUE-DAWLEY/FEMALE, Target Tissue: Type of Lesion: MAMMARY GLAND: ADENOCARCINOMA, Dose [Carcinogen]: 10 MG ONCE AT 55 D OF AGE, Promoter: NONE USED): 88%, 44%, 50%, p<0.05

C#C[C@]1(O)CC[C@H]2[C@@H]3CCc4cc(CC)ccc4[C@H]3CC[C@@]21C (tested in a mixture with another compound)
tumour outcome (control, treated, inhibition, significance) (Carcinogen: 3-METHYLCHOLANTHRENE, 56-49-5, Dose [Inhibitor]: 0, 1/200 OF A PILL CONTAINING 0.25 UG ETHINYLESTRADIOL AND 5 UG LYNESTRENOL 1/D FOR 60 D (STUDY DURATION: 60 D), Route [Inhibitor]: ORAL, Species: MOUSE, Strain/Sex: SWISS/FEMALE, Target Tissue: Type of Lesion: UTERINE CERVIX: TUMOR, Dose [Carcinogen]: 300 UG IN BEESWAX IMPREGNATED COTTON THREAD INSERTED INTO CANAL OF UTERINE CERVIX FOR DURATION OF STUDY, Promoter: NONE USED): 2/23 (9%), 1/27 (4%), 56%, not significant
tumour outcome (control, treated, inhibition, significance) (Carcinogen: 3-METHYLCHOLANTHRENE, 56-49-5, Dose [Inhibitor]: 0, 1/200 OF A PILL CONTAINING 0.25 UG ETHINYLESTRADIOL AND 5 UG LYNESTRENOL 1/D FOR 90 D (STUDY DURATION: 90 D), Route [Inhibitor]: ORAL, Species: MOUSE, Strain/Sex: SWISS/FEMALE, Target Tissue: Type of Lesion: UTERINE CERVIX: TUMOR, Dose [Carcinogen]: 300 UG IN BEESWAX IMPREGNATED COTTON THREAD INSERTED INTO CANAL OF UTERINE CERVIX FOR DURATION OF STUDY, Promoter: NONE USED): 6/23 (26%), 4/20 (20%), 23%, not significant
tumour outcome (control, treated, inhibition, significance) (Carcinogen: 3-METHYLCHOLANTHRENE, 56-49-5, Dose [Inhibitor]: 0, 1/2000 OF A PILL CONTAINING 0.025 UG ETHINYLESTRADIOL AND 0.5 UG OF LYNESTRENOL 1/D FOR 60 D (STUDY DURATION: 60 D), Route [Inhibitor]: ORAL, Species: MOUSE, Strain/Sex: SWISS/FEMALE, Target Tissue: Type of Lesion: UTERINE CERVIX: TUMOR, Dose [Carcinogen]: 300 UG IN BEESWAX IMPREGNATED COTTON THREAD INSERTED INTO CANAL OF UTERINE CERVIX FOR DURATION OF STUDY, Promoter: NONE USED): 2/23 (9%), 1/24 (4%), 56%, not significant
tumour outcome (control, treated, inhibition, significance) (Carcinogen: 3-METHYLCHOLANTHRENE, 56-49-5, Dose [Inhibitor]: 0, 1/2000 OF A PILL CONTAINING 0.025 UG ETHINYLESTRADIOL AND 0.5 UG OF LYNESTRENOL 1/D FOR 90 D (STUDY DURATION: 90 D), Route [Inhibitor]: ORAL, Species: MOUSE, Strain/Sex: SWISS/FEMALE, Target Tissue: Type of Lesion: UTERINE CERVIX: TUMOR, Dose [Carcinogen]: 300 UG IN BEESWAX IMPREGNATED COTTON THREAD INSERTED INTO THE CANAL OF THE UTERINE CERVIX FOR THE DURATION OF STUDY, Promoter: NONE USED): 6/23 (26%), 1/31 (3%), 88%, p<0.05

Cc1ccc(O)c(O)c1
tumour outcome (control, treated, inhibition, significance) (Carcinogen: N-NITROSOBIS(2-HYDROXYPROPYL)AMINE, 53609-64-6, Dose [Inhibitor]: 0, 1.5% IN DIET FOR 30 WK BEGINNING POST CARCINOGEN TREATMENT (STUDY DURATION: 35 WK), Route [Inhibitor]: ORAL, Species: HAMSTER, Strain/Sex: SYRIAN/MALE, Target Tissue: Type of Lesion: PANCREAS: ADENOCARCINOMA, Dose [Carcinogen]: 500 MG/KG 1/WK FOR 5 WK, Promoter: NONE USED): 8/17 (47%), 9/19 (47%), 0%, not significant

CCCCCCCCCCCCCCCC(=O)OCC(COC(=O)CCCCCCCCCCCCCCC)OC(=O)CCCCCCCCCCCCCCC
tumour outcome (control, treated, inhibition, significance) (Carcinogen: DIMETHYLBENZANTHRACENE, 57-97-6, Dose [Inhibitor]: APPLIED 3 MIN POST EACH PROMOTER DOSE 3/WK FOR 20 WK BEGINNING 3 D POST CARCINOGEN DOSE (STUDY DURATION: 20 WK), Route [Inhibitor]: DERMAL, Species: MOUSE, Strain/Sex: SWISS/?, Target Tissue: Type of Lesion: SKIN: TUMOR, Dose [Carcinogen]: 250 UG/0.25 ML ONCE, Promoter: CROTON OIL, 8001-28-3): 100%, 25%, 75%, not calculated

C=C/C(C)=C/C=C/C(C)=C/C=C1/C(C)=CCCC1(C)C
tumour outcome (control, treated, inhibition, significance) (Carcinogen: N-METHYL-N-NITROSOUREA, 684-93-5, Dose [Inhibitor]: 0, 67 MG/KG DIET FOR FOR 88 D BEGINNING 2 D POST CARCINOGEN DOSE (STUDY DURATION: 90 D), Route [Inhibitor]: ORAL, Species: RAT, Strain/Sex: SPRAGUE-DAWLEY/FEMALE, Target Tissue: Type of Lesion: MAMMARY GLAND: ADENOCARCINOMA, Dose [Carcinogen]: 45 MG/KG BW ONCE, Promoter: NONE USED): 100%, 93%, 7%, not significant
tumour outcome (control, treated, inhibition, significance) (Carcinogen: N-METHYL-N-NITROSOUREA, 684-93-5, Dose [Inhibitor]: 0, 134 MG/KG DIET FOR 88 D BEGINNING 2 D POST CARCINOGEN DOSE (STUDY DURATION: 90 D), Route [Inhibitor]: ORAL, Species: RAT, Strain/Sex: SPRAGUE-DAWLEY/FEMALE, Target Tissue: Type of Lesion: MAMMARY GLAND: ADENOCARCINOMA, Dose [Carcinogen]: 45 MG/KG BW ONCE, Promoter: NONE USED): 100%, 100%, 0%, not significant
tumour outcome (control, treated, inhibition, significance) (Carcinogen: N-METHYL-N-NITROSOUREA, 684-93-5, Dose [Inhibitor]: 0, 268 MG/KG DIET FOR 88 D BEGINNING 2 D POST CARCINOGEN DOSE (STUDY DURATION: 90 D), Route [Inhibitor]: ORAL, Species: RAT, Strain/Sex: SPRAGUE-DAWLEY/FEMALE, Target Tissue: Type of Lesion: MAMMARY GLAND: ADENOCARCINOMA, Dose [Carcinogen]: 45 MG/KG BW ONCE, Promoter: NONE USED): 100%, 87%, 13%, p<0.05
tumour outcome (control, treated, inhibition, significance) (Carcinogen: N-METHYL-N-NITROSOUREA, 684-93-5, Dose [Inhibitor]: 0, 536 MG/KG DIET FOR 88 D BEGINNING 2 D POST CARCINOGEN DOSE (STUDY DURATION: 90 D), Route [Inhibitor]: ORAL, Species: RAT, Strain/Sex: SPRAGUE-DAWLEY/FEMALE, Target Tissue: Type of Lesion: MAMMARY GLAND: ADENOCARCINOMA, Dose [Carcinogen]: 45 MG/KG BW ONCE, Promoter: NONE USED): 100%, 80%, 20%, p<0.05
